Test results reported in patent US6586425B2, “Cytoskeletal active agents for glaucoma therapy” (Wisconsin Alumni Research Foundation, priority 1996, dated 2003).
Where two headings read alike, the source gives them in different places.

Columns and labels:
living monkey eye [1] = details: in vivo
living monkey eye [2] = type: in vivo, cynomolgus monkeys (Macaca fascicularis); details: for (LAT-B/BL)/(Veh/BL) / Facility LAT-B/Vehicle / Facility, LAT-B eye: 2 hr wait
living monkey eyes = test: Slit lamp biomicroscopy (ocular tolerability); type: in vivo, cynomolgus monkeys (Macaca fascicularis)
Procedure: e) Ocular Tolerability/Toxicity: Ocular exams, including slit lamp biomicroscopy (Zeiss or Haag-Streit), gonioscopy, and binocular indirect ophthalmoscopy (American Optical or Keeler), were performed by a trained ophthalmologist, using when necessary contact lenses specially fabricated for the small monkey eye (Kaufman and Wallow, Exp. Eye Res., 40:883-885[1985]). In addition, specular microscopy was used to evaluate drug effects on the corneal endothelium.
The AC of both eyes of was cannulated with a branched needle as above, after which baseline facility measurements were taken for 35-45 min. With reservoirs closed, 2×5 μl drops of 200 μM (˜0.8 μg) or 4×5 μl drops of 500 μM (˜4.0 μg) LAT-B were given to one eye of the prone monkey, allowing 60-90 sec between drops. […] Vehicle (10 or 25% DMSO respectively) was given simultaneously to the opposite eye in a similar manner. The doses were chosen to give […] and 1 μM LAT-B concentrations respectively in the 100 μl monkey AC (See e.g., Erickson-Lamy et al., Arch. Opthalmol., 102:1815-1820[1984]), assuming 1% penetration and no initial drug loss from the AC (Asseff et al., Amer. J. Ophthalmol., 75:212-215[1973]; Harris, in Leopold (ed.), Symposium on Ocular Therapy, C. V. Mosby, St. Louis, Mo., [1968], pp. 96-105; Janes and Stiles, Arch. Ophthahnol., 62:69-74[1959]). The perfusion system remained closed for 2 hr, after which facility measurements were taken for 90 min. Biomicroscopy was performed by an ophthalmologist before and 3, 7 and 14 days after drug administration.
For slit lamp biomicroscopy, a trained ophthalmologist examined all eyes by slit lamp, for integrity of the corneal epithelium and endothelium, presence of flare or cells in the anterior chamber and clarity of the lens. All animals were free of ocular abnormalities when studied.

corneal endothelium = details: 42 μg LAT-A topical, n=4
living monkey eye [3] = details: living monkeys; cited from earlier work
[4] = LAT-B 0.8 μg topical, 0-30 min, n=5
[5] = LAT-B 0.8 μg topical, 30-60 min, n=5
[6] = LAT-B 0.8 μg topical, 60-90 min, n=5
[7] = LAT-B 4.0 μg topical, 0-30 min, n=5
[8] = LAT-B 4.0 μg topical, 30-60 min, n=5
[9] = LAT-B 4.0 μg topical, 60-90 min, n=5

SMILES: C/C1=C/C(=O)O[C@@H]2C[C@@H](CC[C@H](C)/C=C\CC1)O[C@@](O)([C@@H]1CSC(=O)N1)C2 [LAT-B]
- BL2/BL1, LAT-B eye (living monkey eye [1]): 0.90 ± 0.05
- BL2/BL1, LAT-B/Veh (living monkey eye [1]): 0.96 ± 0.06
- Baseline facility BL2, LAT-B eye (living monkey eye [1]): 0.33 ± 0.03 μl min^−1 mmHg^−1
- Baseline facility BL2, LAT-B/Veh (living monkey eye [1]): 1.01 ± 0.08
- baseline facility vs baseline immediately prior to LAT-B (living monkey eye [1]): not significantly different
- facility increase, average over 90 min (living monkey eye [1]): 456±128%
- initial post-drug facility increase over final baseline value (living monkey eye [1]): 379±125%
- potency relative to LAT-A in the live monkey TM (living monkey eye [1]): at least 10 fold
- initial post-drug facility increase over final baseline value (living monkey eye [2]; 2 hr after LAT-B 4.0 μg topical, n=5): 173±73%
- PRxf (final post-drug) facility, LAT-B eye (living monkey eye [2]; LAT-B 0.8 μg Top, n=5): 1.54 ± 0.33 μl min^−1 mmHg^−1
- PRxf facility, LAT-B/Veh (living monkey eye [2]; LAT-B 0.8 μg Top, n=5): 2.82 ± 1.22
- PRxf/BLf, LAT-B eye (living monkey eye [2]; LAT-B 0.8 μg Top, n=5): 3.78 ± 0.70
- PRxf/BLf, LAT-B/Veh (living monkey eye [2]; LAT-B 0.8 μg Top, n=5): 2.12 ± 0.64
- PRxf/PRxi, LAT-B eye (living monkey eye [2]; LAT-B 0.8 μg Top, n=5): 3.41 ± 0.73
- PRxf/PRxi, LAT-B/Veh (living monkey eye [2]; LAT-B 0.8 μg Top, n=5): 1.50 ± 0.28
- PRxi (first post-drug) facility, LAT-B eye (living monkey eye [2]; LAT-B 0.8 μg Top, n=5): 0.47 ± 0.08 μl min^−1 mmHg^−1
- PRxi facility, LAT-B/Veh (living monkey eye [2]; LAT-B 0.8 μg Top, n=5): 1.65 ± 0.38
- PRxi/BLf, LAT-B eye (living monkey eye [2]; LAT-B 0.8 μg Top, n=5): 1.16 ± 0.11
- PRxi/BLf, LAT-B/Veh (living monkey eye [2]; LAT-B 0.8 μg Top, n=5): 1.36 ± 0.16
- (LAT-B/BL)/(Veh/BL) (living monkey eye [2]; [4]): 1.84
- Facility LAT-B/Vehicle (living monkey eye [2]; [4]): 2.30
- Facility, LAT-B eye (living monkey eye [2]; [4]): 0.80 μl min^−1 mmHg^−1
- (LAT-B/BL)/(Veh/BL) (living monkey eye [2]; [5]): 2.59
- Facility LAT-B/Vehicle (living monkey eye [2]; [5]): 3.37
- Facility, LAT-B eye (living monkey eye [2]; [5]): 1.35 μl min^−1 mmHg^−1
- (LAT-B/BL)/(Veh/BL) (living monkey eye [2]; [6]): 2.37
- Facility LAT-B/Vehicle (living monkey eye [2]; [6]): 3.14
- Facility, LAT-B eye (living monkey eye [2]; [6]): 1.50 μl min^−1 mmHg^−1
- facility increase, averaged over 90 min (living monkey eye [2]; LAT-B 0.8 μg topical, n=5, p=NS): 123±67%
- PRxf (final post-drug) facility, LAT-B eye (living monkey eye [2]; LAT-B 4.0 μg Top, n=5): 2.03 ± 0.31 μl min^−1 mmHg^−1
- PRxf facility, LAT-B/Veh (living monkey eye [2]; LAT-B 4.0 μg Top, n=5): 3.92 ± 0.58^∥
- PRxf/BLf, LAT-B eye (living monkey eye [2]; LAT-B 4.0 μg Top, n=5): 6.19 ± 0.48
- PRxf/BLf, LAT-B/Veh (living monkey eye [2]; LAT-B 4.0 μg Top, n=5): 3.69 ± 0.55^∥
- PRxf/PRxi, LAT-B eye (living monkey eye [2]; LAT-B 4.0 μg Top, n=5): 3.16 ± 1.08
- PRxf/PRxi, LAT-B/Veh (living monkey eye [2]; LAT-B 4.0 μg Top, n=5): 1.80 ± 0.53
- PRxi (first post-drug) facility, LAT-B eye (living monkey eye [2]; LAT-B 4.0 μg Top, n=5): 0.98 ± 0.27 μl min^−1 mmHg^−1
- PRxi facility, LAT-B/Veh (living monkey eye [2]; LAT-B 4.0 μg Top, n=5): 3.19 ± 1.16
- PRxi/BLf, LAT-B eye (living monkey eye [2]; LAT-B 4.0 μg Top, n=5): 3.03 ± 0.94
- PRxi/BLf, LAT-B/Veh (living monkey eye [2]; LAT-B 4.0 μg Top, n=5): 2.73 ± 0.73
- (LAT-B/BL)/(Veh/BL) (living monkey eye [2]; [7]): 3.68
- Facility LAT-B/Vehicle (living monkey eye [2]; [7]): 4.49
- Facility, LAT-B eye (living monkey eye [2]; [7]): 1.64 μl min^−1 mmHg^−1
- (LAT-B/BL)/(Veh/BL) (living monkey eye [2]; [8]): 4.03
- Facility LAT-B/Vehicle (living monkey eye [2]; [8]): 4.74
- Facility, LAT-B eye (living monkey eye [2]; [8]): 2.19 μl min^−1 mmHg^−1
- (LAT-B/BL)/(Veh/BL) (living monkey eye [2]; [9]): 3.68
- Facility LAT-B/Vehicle (living monkey eye [2]; [9]): 4.22
- Facility, LAT-B eye (living monkey eye [2]; [9]): 2.11 μl min^−1 mmHg^−1
- facility increase, averaged over 90 min (living monkey eye [2]; LAT-B 4.0 μg topical, n=5): 272±45%
- recovery of corneal endothelium (living monkey eyes; 4 μg LAT-B): by 6 hr, the corneal endothelium of almost all treated eyes had recovered
- biomicroscopy findings (living monkey eyes; LAT-B 0.8 μg topical, 3 days after drug and AC perfusion): no adverse effects
- biomicroscopy findings (living monkey eyes; LAT-B 4.0 μg topical, day 3 after perfusion): two drug-treated eyes exhibited a small clot of blood in the AC
- biomicroscopy findings (living monkey eyes; LAT-B topical, day 7): all eyes appeared biomicroscopically normal
- lens appearance (living monkey eyes; after topical drug): always appeared normal
- corneal epithelium at slit lamp (living monkey eyes; topical LAT-A (21 or 42 μg) or LAT-B (4 μg) in 25% DMSO): mild transient corneal epithelial cloudiness
- eyes that developed flare (1-2+ on a scale of 0-4+) (living monkey eyes; topical, recovered by 24-48 hr): one LAT-B-treated eye
- Cell count Exp, drug eye (corneal endothelium; 3 days): 2188 ± 430 cell per square millimeter
- Cell count Exp, drug/Vehicle (corneal endothelium; 3 days): 0.86 ± 0.11
- Cell count Exp, drug−Vehicle (corneal endothelium; 3 days): −281 ± 248 cell per square millimeter
- Cell count Exp/BL, drug eye (corneal endothelium; 3 days): 0.83 ± 0.14
- Cell count Exp/BL, drug/Vehicle (corneal endothelium; 3 days): 0.80 ± 0.11
- Cell count Exp/BL, drug−Vehicle (corneal endothelium; 3 days): −0.18 ± 0.10
- Cell count Exp, drug eye (corneal endothelium; 7 days): 2494 ± 166 cell per square millimeter
- Cell count Exp, drug/Vehicle (corneal endothelium; 7 days): 1.04 ± 0.03
- Cell count Exp, drug−Vehicle (corneal endothelium; 7 days): 94 ± 68 cell per square millimeter
- Cell count Exp/BL, drug eye (corneal endothelium; 7 days): 0.94 ± 0.04
- Cell count Exp/BL, drug/Vehicle (corneal endothelium; 7 days): 0.96 ± 0.02
- Cell count Exp/BL, drug−Vehicle (corneal endothelium; 7 days): −0.04 ± 0.02
- Cell count Exp, drug eye (corneal endothelium; 14 days): 2581 ± 143 cell per square millimeter
- Cell count Exp, drug/Vehicle (corneal endothelium; 14 days): 1.03 ± 0.05
- Cell count Exp, drug−Vehicle (corneal endothelium; 14 days): 75 ± 108 cell per square millimeter
- Cell count Exp/BL, drug eye (corneal endothelium; 14 days): 0.98 ± 0.02
- Cell count Exp/BL, drug/Vehicle (corneal endothelium; 14 days): 0.95 ± 0.03
- Cell count Exp/BL, drug−Vehicle (corneal endothelium; 14 days): −0.05 ± 0.03
- potency relative to LAT-A (outflow facility) (living monkey eye [3]): 10 times
